Measured values published in PMC7824033, “Flavones, Flavonols, and Glycosylated Derivatives—Impact on Candida albicans Growth and Virulence, Expression of CDR1 and ERG11, Cytotoxicity” (Pharmaceuticals, 2020).
Converted amounts (≈) assume the structure as drawn. “Also recorded” adds a separate entry of the source. Read-outs that look alike come from different tables or passages of the source.

Assays:
[1] = system: C. albicans 475/15 biofilm formation; test: Inhibition of biofilm formation (crystal violet); format: cell-based, Candida albicans
Procedure: Potential of selected compounds to interfere with C. albicans 475/15 biofilm formation was investigated as previously described. Briefly, C. albicans 475/15 was incubated with serial dilution of the compounds (MIC and subMICs) in YPD medium, in 96-well microtiter plates with adhesive bottom (Sarstedt, Nümbrecht, Germany), at 37 °C for 24 h. After incubation, wells were washed twice with sterile PBS and methanol was added into each well. After fixation, methanol was discarded, and the plate was air dried. Formed biofilms were stained with 0.1% crystal violet (Bio-Merieux, Craponne, France) for 30 min. The plate was gently washed under the tap of water and air dried. The stain bound to the remaining biofilms was dissolved with ethanol (96%, Zorka, Šabac, Serbia). Absorbance was read on a Multiskan™ FC Microplate Photometer, Thermo Scientific™. The percentage of inhibition of biofilm formation was calculated by the formula:[(A620control − A620sample)/A620control] × 100

ERG11 = test: Expression of ERG11 (qPCR); format: cell-based, Candida albicans; conditions: treatment with MIC
Procedure: (§1) Total RNA was isolated as described by Sanglard et al. with some modifications. C. albicans 475/15 was grown with agitation at 30 °C in YEPD until OD540 = 0.4. C. albicans cells were incubated with MIC of compounds in YEPD at 30 °C with agitation for 30 min. Cells were centrifuged (4600 rpm, 4 °C for 5 min (Rotanata 460 R, Hettich, Tuttlingen, Germany)) and the pellet was resuspended in 300 µL of RNA buffer (0.1 M Tris-HCl pH 7.5, 0.1M LiCl, 10mM EDTA, 0.5% SDS). The pellet was homogenized with 200 µL of DEPC treated glass beads and 300 µL of Phenol:Chloroform:Isoamyl Alcohol (Sigma-Aldrich, Darmstadt, Germany) in Precellys Evolution tissue homogenizer (Bertion instruments, Montigny-le-Bretonneux, France) at 4500 rpm for 5 s. After centrifugation (14,000 rpm, 4 °C, 1 min (Universal 32 R, Hettich, Tuttlingen, Germany)) 200 µL of supernatant was vortexed with 250 µL of Phenol:Chloroform:Isoamyl Alcohol for 10 s. Samples were centrifuged (14,000 rpm, 4 °C, 1 min) and 200 µL of supernatant was transferred to new tubes, 400 µL of ice-cold 99% ethanol was added to each tube, and they were kept on dry ice for 10 min. Samples were centrifuged (14,000 rpm, 4 °C, 2 min), pellet was washed with ethanol (70%), left to dry at room temperature, after which it was dissolved in 50 µL of DEPC treated water. Nanodrop (ND-1000, Witec AG, Sursee, Switzerland) was used for determination of concentration and purity of samples. RNA was stored at −80°C.
(§2) Amount of 10 µg RNA was incubated with 5 µL of DNAse buffer and 1 µL of DNAse at 37 °C for 30 min (DNA-free™ DNA Removal Kit, Ambion, Bleiswijk, Netherlands). After addition of DNAse inactivation reagent tubes were kept at room temperature with occasional vortexing for 5 min. Samples were centrifuged (14,000 rpm, 4°C, 2 min) and the concentration and quality of supernatant were analyzed on Nanodrop (ND-1000, Witec AG, Sursee, Switzerland).
(§3) Synthesis of cDNA was done with a Transcriptor High Fidelity cDNA synthesis kit (Roche). RNA (1 µg) was incubated with 60 µM random hexamer primers, in 11.4 µL of total sample volume, at 65 °C for 10 min. The mixture of Transcriptase reaction buffer 5×, Deoxynucleotide mix, DTT, Protector RNAse inhibitor, and Transcriptor High Fidelity Reverse Transcriptase was added to each tube according to manufacturer instructions. Synthesis of cDNA was completed by incubating the mixture at 50 °C for 30 min and 85 °C for 5 min (Peqstar thermocycler, Peqlab, Erlangen, Germany).
(§4) Wells of MicroAmp Fast 96-Well Reaction plate ((0.1 mL), Applied biosystems, Waltham, MA, USA) were incubated with 10 µL of mixture (cDNA, 2× MasterMix, primers, probe (Table 3), and water). Analysis was performed in StepOnePlus Real Time PCR system with relative standard curve method. Expression levels of CDR1 and ERG11 were normalized to expression of ACT1.

[2] = system: non-tumor colon cell (IEC-18); set-up: method as in PMID 25359775; conditions: up to 150 μM; cited from earlier work
CDR1 = test: Expression of CDR1 (qPCR); format: cell-based, Candida albicans; conditions: treatment with MIC
Procedure: as §1, §2, §3, §4

[3] = system: C. albicans morphological transition; conditions: cited from earlier work
S. aureus efflux = system: S. aureus efflux; set-up: method as in PMID 25961825; conditions: S. aureus; cited from earlier work
ALS1, ALS3, HWP1, SUN41 = conditions: ref 18; cited from earlier work
[4] = system: HUVE (human umbilical vein endothelial) cells; conditions: read-out: LC50; cited from earlier work

Row | Structure (SMILES) | antibiofilm activity ([1]; MIC and subMICs) | inhibition of biofilm formation ([1]; compound applied at MIC) [%] | inhibition of biofilm formation ([1]; compound applied at MIC/2) [%] | impact on ERG11 expression (words) (ERG11) | ERG11 expression level, Log2FC (ERG11; 30 min, normalized to ACT1) [Log2FC] | impact on ERG11 expression (words) (ERG11; listed as isoquercitrin) | cytotoxic effects [2] | impact on CDR1 expression (CDR1) | concentration leading to reduction of morphological transition ([3]; ref 18) [µg/mL] | concentration leading to reduction of morphological transition ([3]; ref 28) | IC50, efflux inhibition (S. aureus efflux) [µg/mL] | ALS1, ALS3, HWP1 and SUN41 expression levels (ALS1, ALS3, HWP1, SUN41) | CC50 [4] [µM]
1 | O=c1c(O[C@@H]2O[C@H](CO)[C@@H](O)[C@H](O)[C@H]2O)c(-c2ccc(O)c(O)c2)oc2cc(O)cc(O)c12 [Isoquercitrin, isoquercitrin] | excellent activity; also recorded: notably lowered | 76 | > 60 | increased expression levels | > 1 | upregulated; also recorded: increased ERG11 expression | did not show cytotoxic effects |  |  |  |  |  | 
2 | O=c1c(O)c(-c2ccc(O)c(O)c2)oc2cc(O)cc(O)c12 [Quercetin, quercetin] |  |  |  |  |  |  |  | did not exhibit any significant inhibitory potential | 64 | up to 200 µg/mL | 75 (≈ 248 µM) | reduced | 61
